Assay results: patent publication US20160280699A1, “SUBSTITUTED PHENYLALANINE DERIVATIVES” (BAYER PHARMA AKTIENGESELLSCHAFT, priority 2013, published 2016)
Where a name gives a salt, the structure may show the parent alone.

Experiments:
[1] = system: human and animal plasma; test: Determination of anticoagulatory activity: activated partial thromboplastin time (aPTT) in plasma; type: biochemical; conditions: concentration of test substance which brings about a 1.5-fold extension of the aPTT, 37° C., C.K. Prest kit
Description: The anticoagulatory activity of the test substances is determined in vitro in human and animal plasma (for example mouse, rat, rabbit, pig and dog plasma). To this end, blood is drawn off in a mixing ratio of sodium citrate/blood of 1:9 using a 0.11 molar sodium citrate solution as receiver. Immediately after the blood has been drawn off, it is mixed thoroughly and centrifuged at about 4000 g for 15 minutes. The supernatant is pipetted off.
The activated partial thromboplastin time (aPTT) is determined in the presence of varying concentrations of test substance or the corresponding solvent using a commercial test kit (C.K. Prest from Diagnostica Stago). The test compounds are incubated with the plasma and the PTT reagent (cephalin, kaolin) at 37° C. for 3 minutes. Coagulation is then started by addition of a 25 mM aqueous calcium chloride solution, and the time when coagulation occurs is determined. The concentration of test substance which brings about a 1.5-fold extension of the aPTT is determined Activity data from this test are listed in Table B below: […]

[2] = molecular target: T1, human factor XIa (Homo sapiens, UniProt P03951); test: Measurement of FXIa inhibition (fluorogenic peptide substrate Boc-Glu(OBzl)-Ala-Arg-AMC); type: biochemical; conditions: factor XIa from Kordia, 15 min preincubation, 30 min at 22° C., fluorescence
T1 construct: purchased Kordia
T1 sequence (P03951 388-625 limits assumed): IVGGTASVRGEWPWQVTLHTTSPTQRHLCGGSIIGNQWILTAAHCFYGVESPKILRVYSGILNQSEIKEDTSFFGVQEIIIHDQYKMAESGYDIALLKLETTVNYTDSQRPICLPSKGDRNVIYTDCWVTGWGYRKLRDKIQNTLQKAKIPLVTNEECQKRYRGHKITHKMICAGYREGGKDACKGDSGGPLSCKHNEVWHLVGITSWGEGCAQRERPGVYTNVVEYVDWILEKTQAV
T1 sequence (P03951 19-387 partner limits assumed): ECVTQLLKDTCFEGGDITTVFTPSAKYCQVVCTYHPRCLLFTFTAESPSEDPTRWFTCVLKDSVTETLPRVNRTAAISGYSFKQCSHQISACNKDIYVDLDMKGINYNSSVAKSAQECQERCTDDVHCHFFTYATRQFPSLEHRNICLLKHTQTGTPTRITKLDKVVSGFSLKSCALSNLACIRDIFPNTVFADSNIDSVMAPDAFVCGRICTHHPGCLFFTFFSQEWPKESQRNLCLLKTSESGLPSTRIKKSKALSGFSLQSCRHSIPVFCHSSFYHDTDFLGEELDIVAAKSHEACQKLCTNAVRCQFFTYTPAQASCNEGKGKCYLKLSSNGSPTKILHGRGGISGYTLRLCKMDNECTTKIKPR
Description: The factor XIa inhibition of the substances according to the invention is determined using a biochemical test system which utilizes the reaction of a peptidic factor XIa substrate to determine the enzymatic activity of human factor XIa. Here, factor XIa cleaves from the peptic factor XIa substrate the C-terminal aminomethylcoumarin (AMC), the fluorescence of which is measured. The determinations are carried out in microtitre plates.
Test substances are dissolved in dimethyl sulphoxide and serially diluted in dimethyl sulphoxide (3000 μM to 0.0078 μM; resulting final concentrations in the test: 50 μM to 0.00013 μM). In each case 1 μl of the diluted substance solutions is placed into the wells of white microtitre plates from Greiner (384 wells). Subsequently, the following are added successively: 20 μl of assay buffer (50 mmol/l Tris buffer pH 7.4; 100 mmol/l sodium chloride; 5 mmol/l calcium chloride; 0.1% bovine serum albumin) and 20 μl of factor XIa from Kordia (0.45 nM in assay buffer). After 15 min of incubation, the enzyme reaction is started by addition of 20 μl of the factor XIa substrate Boc-Glu(OBzl)-Ala-Arg-AMC dissolved in assay buffer (10 μM in assay buffer) from Bachem, the mixture is incubated at room temperature (22° C.) for 30 min and fluorescence is then measured (excitation: 360 nm, emission: 460 nm). The measured emissions of the test batches with test substance are compared to those of control batches without test substance (only dimethyl sulphoxide instead of test substance in dimethyl sulphoxide), and IC50 values are calculated from the concentration/activity relationships.

SMILES | aPTT [1] [µmol/L] | IC50 [2] [nM]
NC[C@H]1CC[C@H](C(=O)N[C@@H](Cc2ccc(-c3cccnc3N)cc2)C(=O)Nc2ccc(-c3nn[nH]n3)cc2)CC1 [Example 26, N-alpha-{[trans-4-(Aminomethyl)cyclohexyl]carbonyl}-4-(2-aminopyridin-3-yl)-N-[4-(2H-tetrazol-5-yl)phenyl]-L-phenylalaninamide hydrochloride] | 0.19 | 3.7
NC[C@H]1CC[C@H](C(=O)N[C@@H](Cc2ccc(-c3cccnc3)cc2)C(=O)Nc2ccc(-c3noc(=O)[nH]3)cc2)CC1 [Example 14, N-alpha-{[trans-4-(Aminomethyl)cyclohexyl]carbonyl}-N-[4-(5-oxo-4,5-dihydro-1,2,4-oxadiazol-3-yl)phenyl]-4-pyridin-3-yl-L-phenylalaninamide hydrochloride] | 0.28 | 8.5
NC[C@H]1CC[C@H](C(=O)N[C@@H](Cc2ccc(-c3ccnc(N4CCNCC4)c3)cc2)C(=O)Nc2ccc(-c3nn[nH]n3)cc2)CC1 [Example 33, N-alpha-{[trans-4-(Aminomethyl)cyclohexyl]carbonyl}-4-[2-(piperazin-1-yl)pyridin-4-yl]-N-[4-(2H-tetrazol-5-yl)phenyl]-L-phenylalaninamide hydrochloride] | 0.29 | 20
CN(C)c1ncc(-c2ccc(C[C@H](NC(=O)[C@H]3CC[C@H](CN)CC3)C(=O)Nc3ccc(-c4nn[nH]n4)cc3)cc2)cn1 [Example 25, N-alpha-{[trans-4-(Aminomethyl)cyclohexyl]carbonyl}-4-[2-(dimethylamino)pyrimidin-5-yl]-N-[4-(2H-tetrazol-5-yl)phenyl]-L-phenylalaninamide hydrochloride] | 0.29 | 8
NC[C@H]1CC[C@H](C(=O)N[C@@H](Cc2ccc(-c3cccnc3)cc2)C(=O)Nc2ccc(-c3nn[nH]n3)cc2)CC1 [Example 5, N-alpha-{[trans-4-(Aminomethyl)cyclohexyl]carbonyl}-4-pyridin-3-yl-N-[4-(2H-tetrazol-5-yl)phenyl]phenylalaninamide] | 0.35 | 7
CN(C)CCCOc1ccc(-c2ccc(C[C@H](NC(=O)[C@H]3CC[C@H](CN)CC3)C(=O)Nc3ccc(-c4nn[nH]n4)cc3)cc2F)cn1 [Example 45, N-alpha-{[trans-4-(Aminomethyl)cyclohexyl]carbonyl}-4-{6-[3-(dimethylamino)propoxy]pyridin-3-yl}-3-fluoro-N-[4-(2H-tetrazol-5-yl)phenyl]-L-phenylalaninamide hydrochloride] | 0.35 | 13
NC[C@H]1CC[C@H](C(=O)N[C@@H](Cc2ccc(-c3ccnc(N4CCOCC4)c3)cc2)C(=O)Nc2ccc(-c3nn[nH]n3)cc2)CC1 [Example 35, N-alpha-{[trans-4-(Aminomethyl)cyclohexyl]carbonyl}-4-[2-(morpholin-4-yl)pyridin-4-yl]-N-[4-(2H-tetrazol-5-yl)phenyl]-L-phenylalaninamide hydrochloride] | 0.48 | 5.5
Cl.NC[C@H]1CC[C@H](C(=O)N[C@@H](Cc2ccc(-c3cnc(N4CCOCC4)nc3)cc2)C(=O)Nc2ccc(-c3nc(C(F)(F)C(F)(F)C(=O)O)n[nH]3)cc2)CC1 [Example 59, 3-(5-{4-[(N-{[trans-4-(Aminomethyl)cyclohexyl]carbonyl}-4-[2-(morpholin-4-yl)pyrimidin-5-yl]-L-phenylalanyl)amino]phenyl}-1H-1,2,4-triazol-3-yl)-2,2,3,3-tetrafluoropropanoic acid hydrochloride] | 0.08 | 2.6
Cc1ncccc1-c1ccc(C[C@H](NC(=O)[C@H]2CC[C@H](CN)CC2)C(=O)Nc2ccc(-c3nn[nH]n3)cc2)cc1 [Example 13, N-alpha-{[trans-4-(Aminomethyl)cyclohexyl]carbonyl}-4-(2-methylpyridin-3-yl)-N-[4-(2H-tetrazol-5-yl)phenyl]-L-phenylalaninamide hydrochloride] | 0.13 | 2.1
